Source: paper PMC8049364, “Quantification of Macrophage-Driven Inflammation During Myocardial Infarction with ^18F-LW223, a Novel TSPO Radiotracer with Binding Independent of the rs6971 Human Polymorphism” (Journal of Nuclear Medicine, 2021)

Key:
[1] = Plasma free fraction by ultrafiltration; assay type: in vitro ADME; conditions: Sprague-Dawley, rat, mean ± SEM, n = 5, read-out: parent free fraction in plasma
Procedure: kept on ice until analyzed. Radioactivity in whole blood and plasma, as well as homogenized tissue samples, was assessed using a well-type γ-counter using a 400– 1400 keV window (Perkin Elmer Wizzard2, USA). Plasma samples (400 μl) and tissue samples (500 μl) were processed by acetonitrile denaturation (1:1.4 v/v) and analyzed by HPLC (Ultimate2000, ThermoFisher, UK) on a Luna C18(2) 10×250 mm, 10 μm column (Phenomenex, UK) with acetonitrile/water 70/30 and flow rate of 4 mL/min to estimate the parent fraction. The plasma fp was determined using ultrafiltration units (Centrifree® 30K, […]
Simulation of Changes in 18F-LW223 BPND for varying blood flow scenarios Simulation work was carried out using a Matlab (MathWorks, USA) 2-tissue compartment code with Ordinary Differential Equation (ODE) solvers. Six different levels of K1 values (0.9, 0.7, 0.5, 0.3, 0.1 and 0.01 mL/min/cc) were tested with fixed k2 and vB=0.05. The following BPND values were simulated: 4, 10, 16 and 20; with k3 modified and k4 fixed. All micro parameters used in the simulations are shown in Supplementa l Table 5. The input function used was an average of the blood curve s taken from healthy animals using the SwissTrace blood sampler (Supplemental Data File 1). The plasma to whole blood ratio used was 1.84 and the AIF was metabolite corrected using a population based curve as in the experimental data. […]

TSPO = biological target: T1, TSPO (Rattus norvegicus, UniProt P16257); assay: PET/CT imaging and kinetic modelling in rat MI model, day 7; assay type: in vivo; parameters: k4 (2T analysis), mean / K1 (2T analysis), mean / k2 (2T analysis), mean / k3 (2T analysis), mean: unit not given here; conditions: for K1 (2T analysis), mean / VT (2T analysis), mean / k2 (2T analysis), mean / k3 (2T analysis), mean / k3/k4 (2T analysis), mean / k4 (2T analysis), mean: MI n = 9
T1 construct: Thirty-three adult male Sprague–Dawley rats; from tissue; host or cells: living adult male Sprague-Dawley rats; heart, LV anterior wall, lung and brain VOIs
Procedure: For MI studies, anesthesia was induced and maintained using isoflurane (0.5%–3% in oxygen, 1 L/min) before buprenorphine (0.05 mg/kg; Alstoe Ltd.) was administered preoperatively for analgesia. Tracheal intubation was achieved under direct vision, and ventilation was maintained with a rodent ventilator (model 683 [Harvard Apparatus]; tidal volume, 2.5 cm^3; respiratory rate, 60/min). MI was induced as we have previously described ([18]), and further details can be found in the supplemental materials. Animals were imaged within 1 d of day 7 after MI, referred to as day 7 throughout the article.
Thirty-two PET scans were performed with ^18F-LW223 (17.8 ± 1.5 MBq, intravenous bolus, mean ± SEM). Naïve and MI rat scans were acquired immediately after intravenous bolus injection of ^18F-LW223. […] Dosimetry studies were conducted using mice and 240-min PET scans.
Reconstructed scans were imported into PMOD, version 3.8 (PMOD Technologies). Volumes of interest (VOIs) were manually drawn around the brain, heart, and lung using CT images. To sample the infarct area (or an equivalent area in naïve hearts), averaged PET images (0–120 min) were used to place 3 spheric VOIs at the center of the infarct territory within the ventricular wall (1.5 mm^3). […] Time–activity curves were generated, and SUVs were calculated as concentration in the VOI divided by injected dose divided by animal weight. Kinetic modeling was performed using the 2-tissue-compartment model to estimate the kinetic rate constants K1–k4 and the total volume of distribution (VT) in different tissues. Blood volume fraction (VB) was not modeled in this study. Two-tissue-compartment modeling was selected as the preferred model on the basis of a comparison of goodness and robustness of fitting versus several other models (Supplemental Fig. 3; Supplemental Table 2). The binding potential relative to nondisplaceable volume (BPND) was defined as k3/k4 ([19]). The transfer-corrected BPND, termed BPTC, was formulated as follows:Eq. 1 BPTC=k3/k4÷K1, […]
where k3 is the radiotracer association rate with specific binding, k4 is the dissociation rate constant of target ligand, and K1 is the rate constant for transfer from arterial plasma to tissues. When tissue blood flow is impaired, such as after MI, K1→blood flow, as per the Renkin–Crone equation:Eq. 2 K1=F×E=F (1−e^− PS/F), […]
Invasive Input Function Measurement
Polyethylene catheters (PE50) filled with heparinized saline (20 IU/mL) were inserted into the left femoral artery and vein with the help of a stereomicroscope and securely fastened with ligatures (6-0 silk thread). Catheters were held in place with […]
Rat Myocardial Infarction Procedure
Briefly, the skin was incised at the level of the left third and fourth ribs where the pectoral muscles were divided and retracted. Left lateral thoracotomy was then performed. With minimal handling, the pericardium was ruptured and the heart gently exteriorized from the thorax, and a nonabsorbable 5-0 ligature was placed around the left anterior descending coronary artery just above the bifurcation of the first diagonal and maneuvered back into position. Before wound closure, a drain was inserted to assist with removal of air and fluid from the thorax. Once removed, the wound was then closed in three layers. Animals were recovered and extubated once spontaneous ventilation was established, housed at 30 °C for 24 hours and given sterile sodium chloride 0.9% 0.01 mL/g fluid therapy subcutaneously in addition to another dose of Buprenorphine. After 24 hours, normal housing conditions were resumed.
Radiometabolite Blood and Tissue Processing and Analysis
All blood samples were 1 mL each and manually collected from different animals to generate a population curve, in order to respect total blood volume limits for terminal arterial blood collections in rats. Following blood and tissue collection, all samples were […]

For CC[C@@H](C)N(C)C(=O)c1nc2ccccc2c(-c2ccccc2)c1C[18F] [^18F-LW223], the fraction unbound [1] was 0.385, the “K1 (2T analysis), mean” value (TSPO; Brain) was 0.17 and the “VT (2T analysis), mean” value (TSPO; Brain) was 2.21. The “k2 (2T analysis), mean” value (TSPO; Brain) was 0.19, the “k3 (2T analysis), mean” value (TSPO; Brain) was 0.023 and the “k3/k4 (2T analysis), mean” value (TSPO; Brain) was 1.42. The “k4 (2T analysis), mean” value (TSPO; Brain) was 0.02, the “K1 (2T analysis), mean” value (TSPO; Global Heart) was 0.58 and the “VT (2T analysis), mean” value (TSPO; Global Heart) was 12.57. The “k2 (2T analysis), mean” value (TSPO; Global Heart) was 0.36, the “k3 (2T analysis), mean” value (TSPO; Global Heart) was 0.04 and the “k3/k4 (2T analysis), mean” value (TSPO; Global Heart) was 6.62. For the same molecule, the “k4 (2T analysis), mean” value (TSPO; Global Heart) was 0.01, the “K1 (2T analysis), mean” value (TSPO; LV Anterior Wall) was 0.25 and the “VT (2T analysis), mean” value (TSPO; LV Anterior Wall) was 13.62. The “k2 (2T analysis), mean” value (TSPO; LV Anterior Wall) was 0.18, the “k3 (2T analysis), mean” value (TSPO; LV Anterior Wall) was 0.025 and the “k3/k4 (2T analysis), mean” value (TSPO; LV Anterior Wall) was 7.92. For the same molecule, the “k4 (2T analysis), mean” value (TSPO; LV Anterior Wall) was 0.01, the “K1 (2T analysis), mean” value (TSPO; Lung) was 1.08 and the “VT (2T analysis), mean” value (TSPO; Lung) was 10.43. The “k2 (2T analysis), mean” value (TSPO; Lung) was 0.39, the “k3 (2T analysis), mean” value (TSPO; Lung) was 0.046 and the “k3/k4 (2T analysis), mean” value (TSPO; Lung) was 2.49. The “k4 (2T analysis), mean” value (TSPO; Lung) was 0.02, the BPTC (TSPO; MI cohort, infarct territory of anterior wall, 7 d after MI) was 32.7 ± 5.0 cm^3/mL/min and the “reduction of K1 in LV anterior wall, MI vs naïve” value (TSPO; rat, in vivo) was 3.6 fold. The “reduction of k2 in LV anterior wall, MI vs naïve” value (TSPO; rat, in vivo) was 1.4 fold.
